Entries after “also recorded” stand apart in the source; their conditions may differ.
How the values were obtained:
human wild-type CFTR [1] = molecular target: T1, human wild-type CFTR (Homo sapiens, UniProt P13569); test: Short-circuit current in FRT cells expressing wild-type human CFTR; format: cell-based; design: expressed in transfected cells
Procedure: Short-circuit current was measured in FRT cells stably expressing wild-type human CFTR cultured on porous filters as described. The basolateral solution contained 130 mM NaCl, 2.7 mM KCl, 1.5 mM KH2PO4, 1 mM CaCl2, 0.5 mM MgCl2, 10 mM glucose, and 10 mM Na-HEPES (pH 7.3, 37° C.). In the apical solution 65 mM NaCl was replaced by Na gluconate, and CaCl2 was increased to 2 mM, and the basolateral membrane was permeabilized with 250 μg/ml amphotericin B. Short-circuit current was measured in freshly harvested adult mouse colon at 37° C. using symmetrical Krebs-bicarbonate buffer.
(§1) Fischer rat thyroid (FRT) cells stably expressing wild-type human CFTR were cultured on Snapwell inserts (Corning Costar, Corning N.Y., USA) for short-circuit current (Isc) measurements. After 6-9 days in culture, when the transepithelial resistance was >1000 Ω/cm^2, the inserts were mounted in an Ussing chamber system (World Precision Instruments, Sarasota, Fla., USA). The basolateral solution contained 130 mM NaCl, 2.7 mM KCl, 1.5 mM KH2PO4, 1 mM CaCl2, 0.5 mM MgCl2, 10 mM glucose, and 10 mM Na-HEPES (pH 7.3). In the apical bathing solution, 65 mM NaCl was replaced by Na gluconate, and CaCl2 was increased to 2 mM. Both solutions were bubbled with air and maintained at 37° C. The basolateral membrane was permeabilized with 250 μg/ml amphotericin B (26, 27). Hemichambers were connected to a DVC-1000 voltage clamp via Ag/AgCl electrodes and 3 M KCl agar bridges for Isc recording.
Short-circuit current measurement. Short-circuit current was measured in FRT cells stably expressing wild-type human CFTR cultured on porous filters as described. The basolateral solution contained 130 mM NaCl, 2.7 mM KCl, 1.5 mM KH2PO4, 1 mM CaCl2, 0.5 mM MgCl2, 10 mM glucose, and 10 mM Na-HEPES (pH 7.3, 37° C.). In the apical solution 65 mM NaCl was replaced by Na gluconate, and CaCl2 was increased to 2 mM, and the basolateral membrane was permeabilized with 250 μg/ml amphotericin B. Short-circuit current was measured in freshly harvested adult mouse colon at 37° C. using symmetrical Krebs-bicarbonate buffer.
as §1, with “Short-circuit current. Fischer” for “Fischer”
Short-circuit current measurement. Short-circuit current measurements were done as described. Briefly, Snapwell (Corning Costar, Corning, N.Y.) inserts containing CFTR-expressing FRT cells or human bronchial epithelial cells were mounted in Ussing chambers (Physiological Instruments, San Diego, Calif.). For FRT cells the hemichambers were filled with 5 ml of HCO3^−-buffered solution (basolateral) and half-Cl^− solution (apical), and the basolateral membrane was permeabilized with 250 μg/ml amphotericin B. Symmetrical HCO3^−-buffered solutions were used for human bronchial epithelial cells. Solutions were bubbled with 95% O2/5% CO2 and maintained at 37° C., and short-circuit current was measured on a DVC-1000 voltage clamp (World Precision Instruments Inc., Sarasota, Fla.) using Ag/AgCl electrodes and 3 M KCl agar bridges.

FRT cells = test: Cytotoxicity by Alamar Blue assay in FRT cells; format: cell-based, rat; conditions: for cytotoxicity of 6k / 12: 10 μM, 8 h; for cytotoxicity at up to 100 μM: 1 or 24 h
rat liver microsomes = test: In vitro metabolic stability in rat liver microsomes; format: in vitro ADME; conditions: NADPH
Procedure: In vitro metabolic stability. Compounds (each 5 μM) were incubated for specified times at 37° C. with rat liver microsomes (1 mg/ml; Sigma-Aldrich) in potassium phosphate buffer containing 1 mM NADPH, as described^14.

human wild-type CFTR [2] = molecular target: T1, human wild-type CFTR; test: Cell-based plate reader (YFP iodide influx) assay of CFTR function; design: expressed in transfected cells; host or cells: Fischer rat thyroid (FRT) cells stably co-expressing YFP-H148Q
Summary of the method: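 YFP-quenching assay: I⁻ influx is read for 2 s baseline and 12 s after rapid I⁻ addition. The initial influx rate, from exponential regression, is a linear measure of channel function. Plates carry DMSO vehicle and 20 μM forskolin controls.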

[3] = FRT cells expressing human wild-type CFTR
[4] = FRT cells expressing human wild-type CFTR, read-out: EC50 for CFTR activation (short-circuit current)

T1 sequence (P13569 whole entry): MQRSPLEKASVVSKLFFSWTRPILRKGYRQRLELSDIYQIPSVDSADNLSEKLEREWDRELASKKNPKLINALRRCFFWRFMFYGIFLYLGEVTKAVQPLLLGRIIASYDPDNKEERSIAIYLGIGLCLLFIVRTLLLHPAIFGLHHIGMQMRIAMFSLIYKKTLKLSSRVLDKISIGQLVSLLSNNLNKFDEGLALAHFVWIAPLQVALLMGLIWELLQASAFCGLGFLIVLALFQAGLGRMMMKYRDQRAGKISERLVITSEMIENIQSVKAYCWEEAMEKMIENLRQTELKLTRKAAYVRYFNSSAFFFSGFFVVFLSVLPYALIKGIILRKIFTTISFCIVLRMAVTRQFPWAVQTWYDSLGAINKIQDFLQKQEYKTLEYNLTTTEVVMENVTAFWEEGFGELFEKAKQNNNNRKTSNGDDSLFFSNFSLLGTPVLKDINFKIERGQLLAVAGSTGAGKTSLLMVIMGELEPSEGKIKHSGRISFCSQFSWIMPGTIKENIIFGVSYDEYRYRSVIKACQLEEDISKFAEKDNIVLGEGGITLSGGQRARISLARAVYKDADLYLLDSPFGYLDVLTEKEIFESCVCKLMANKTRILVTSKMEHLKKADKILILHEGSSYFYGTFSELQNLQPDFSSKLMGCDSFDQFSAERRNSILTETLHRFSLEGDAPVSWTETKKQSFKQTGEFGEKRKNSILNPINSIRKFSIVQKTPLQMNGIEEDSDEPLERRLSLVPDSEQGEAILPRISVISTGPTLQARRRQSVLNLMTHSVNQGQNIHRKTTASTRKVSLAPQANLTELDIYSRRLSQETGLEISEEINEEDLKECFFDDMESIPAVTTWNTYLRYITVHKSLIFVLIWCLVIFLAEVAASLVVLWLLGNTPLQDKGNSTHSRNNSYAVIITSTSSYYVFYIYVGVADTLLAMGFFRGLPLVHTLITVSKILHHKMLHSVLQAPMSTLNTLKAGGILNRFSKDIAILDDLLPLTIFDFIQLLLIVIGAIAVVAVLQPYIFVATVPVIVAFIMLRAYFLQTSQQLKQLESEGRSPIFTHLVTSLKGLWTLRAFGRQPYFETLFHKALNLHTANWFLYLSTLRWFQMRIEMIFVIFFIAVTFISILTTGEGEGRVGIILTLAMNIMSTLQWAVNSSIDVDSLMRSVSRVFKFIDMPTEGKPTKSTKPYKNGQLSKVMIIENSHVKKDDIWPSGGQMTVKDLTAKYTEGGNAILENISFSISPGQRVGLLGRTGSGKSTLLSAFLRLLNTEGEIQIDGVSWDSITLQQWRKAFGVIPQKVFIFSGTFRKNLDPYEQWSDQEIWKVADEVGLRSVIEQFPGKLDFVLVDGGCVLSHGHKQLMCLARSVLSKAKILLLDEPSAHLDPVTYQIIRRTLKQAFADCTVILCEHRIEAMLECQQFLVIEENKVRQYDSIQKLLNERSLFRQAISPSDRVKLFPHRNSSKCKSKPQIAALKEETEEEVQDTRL

CCN(CC)c1nc(Nc2ccc3ncsc3c2)nc(OC(C(F)(F)F)C(F)(F)F)n1 [6k, N′-(1,3-Benzothiazol-6-yl)-N,N-diethyl-6-[(1,1,1,3,3,3-hexafluoropropan-2-yl)oxy]-1,3,5-triazine-2,4-diamine]
CFTR activation (short-circuit current), in words (human wild-type CFTR [1]; [3]): full CFTR activation
EC50 (human wild-type CFTR [1]; [4]): 30 nM
cytotoxicity of 6k / 12 (FRT cells): did not produce significant toxicity
original compound remaining at 60 min (rat liver microsomes; 5 μM, rat hepatic microsomes): ~60%
metabolic stability in hepatic microsomes, in words (rat liver microsomes): metabolized slowly; also recorded: substantially greater in vitro metabolic stability than 1 or 12
EC50 (human wild-type CFTR [2]): ~50 nM
fold increase in potency over benzoxazole 6j (human wild-type CFTR [2]): ~3 fold
EC50 (human wild-type CFTR [2]; bicyclic aniline analogs, read-out: EC50): 50 nM

Nc1ccc([N+](=O)[O-])cc1-c1nc2ccccc2n(Cc2ccccc2)c1=O [CFTRact-J027, 3-(2-amino-5-nitrophenyl)-1-benzylquinoxalin-2(1H)-one]
activation of CFTR at 3 μM (human wild-type CFTR [1]; 3 μM, wild-type CFTR, FRT cells): nearly full activation
CFTR activation (short-circuit current), in words (human wild-type CFTR [1]; [3]): fully activated CFTR chloride conductance
cytotoxicity at 20 μM (FRT cells; 20 μM): did not show cytotoxicity
cytotoxicity at 25 μM (FRT cells; 25 μM): did not show significant in vitro cytotoxicity
non-cytotoxic concentration relative to EC50 for CFTR activation (FRT cells; 25 μM): > 100 fold
cytotoxicity at up to 100 μM (FRT cells): no appreciable in vitro cytotoxicity

CCN(CC)c1nc(Nc2ccccc2)nc(OC(C(F)(F)F)C(F)(F)F)n1 [CFTRact-K089, N,N-Diethyl-6-[(1,1,1,3,3,3-hexafluoropropan-2-yl)oxy]-N′-phenyl-1,3,5-triazine-2,4-diamine]
CFTR activation, Vmax (human wild-type CFTR [1]; 100% = 20 μM forskolin): ~50 % Vmax
CFTR activation (short-circuit current), in words (human wild-type CFTR [1]; [3]): fully activated CFTR
EC50 (human wild-type CFTR [1]; [4]): ~250 nM
cytotoxicity at up to 100 μM (FRT cells): no appreciable in vitro cytotoxicity
metabolic stability in hepatic microsomes, in words (rat liver microsomes): metabolized rapidly
EC50 (human wild-type CFTR [2]; N,N-diethyl-N′-aryl-1,3,5-triazine diamine analogs, read-out: EC50 for CFTR activation): 240 nM
% Activation (human wild-type CFTR [2]; commercial analogs, FRT cells with YFP and wildtype CFTR, 125 nM forskolin): 111%
EC50 (human wild-type CFTR [2]; commercial analogs, read-out: EC50 (full-dose response assay, compounds >80% activation)): 250 nM

CC(C)(C)c1cc(C(C)(C)C)c(NC(=O)c2c[nH]c3ccccc3c2=O)cc1O [VX-770, reference compound]
CFTR activation (short-circuit current), in words (human wild-type CFTR [1]; [3]): relatively little activity; also recorded: relatively weak activity

CNc1nc(Nc2ccccc2)nc(OCC(F)(F)C(F)F)n1 [compound 12, N-methyl-N′-phenyl-6-(2,2,3,3-tetrafluoropropoxy)-1,3,5-triazine-2,4-diamine]
EC50 (human wild-type CFTR [1]): ~30 nM
CFTR activation (short-circuit current), in words (human wild-type CFTR [1]; [3]): fully activated CFTR chloride conductance; also recorded: full CFTR activation
EC50 (human wild-type CFTR [1]; [4]): 31 nM
cytotoxicity of 6k / 12 (FRT cells): non-toxic; also recorded: did not produce significant toxicity
metabolic stability in hepatic microsomes, in words (rat liver microsomes): rapidly metabolized by hepatic microsomes
fold better EC50 than diethylamine analog 6a (human wild-type CFTR [2]): ~50 fold
fold more potent than hexafluoropropanol analog 11 (human wild-type CFTR [2]): ~3 fold
EC50 (human wild-type CFTR [2]; N-methyl-N′-phenyl-1,3,5-triazine diamine analogs, read-out: EC50): 40 nM
